Experimental data as given in US11419918B2, “Treatment of biliary cirrhosis based on oxyntomodulin analogue GLP-1R/GCGR dual-target agonist peptide” (Shenzhen Turier Biotech Co., Ltd., priority 2017, dated 2022).
Numbered stars: 1 amine (or outer) side, 2 acyl side, 3 side chain; on linkers, the order of the positions; unused ones are H or OH. Square brackets hold non-standard residues; d marks the D form. Primed or numbered codes have the meaning given here. Side chains are listed from the residue outwards. Ends that are not written are not given here. * marks the point of attachment. C18 diacid = O=C(O)CCCCCCCCCCCCCCCCC(=O)*; C16 diacid = O=C(O)CCCCCCCCCCCCCCC(=O)*; γGlu = O=C(O)[C@H](CCC(=O)[*:2])N[*:1]; Stearoyl = CCCCCCCCCCCCCCCCCC(=O)*; Palmitoyl = CCCCCCCCCCCCCCCC(=O)*; Nle = CCCC[C@H](N)C(=O)O; PEG2′ = not defined here; Aib = CC(C)(N)C(=O)O

Tested on: human hepatic stellate cells (LX-2)
Experiment: In vitro inhibition of hepatic fibrosis: expression of activation marker α-SMA in LX-2 cells (Western Blot, β-actin internal reference)
Format: cell-based
Conditions: 10.0 μM, 48 hours, negative control (PBS) = 100%
Experimental: Hepatic stellate cell strain LX-2 was selected to study and observe the effect of different doses of test substances on the expression of LX-2 cell activation marker α-SMA. Hepatic stellate cell LX-2 was laid on 35 mm cell culture plate, cultured with DMEM (high glucose)+10% FBS+1% double-antibody culture medium (Thermo Fisher), placed overnight when the cells grew to 70% convergence at 37° C. and under the condition of 5% CO2, and treated with the above GLP-1R/GCGR dual target agonist polypeptides 1-48 (dissolved in PBS) for 48 hours the next day morning to extract cell protein, carry out Western Blot, and take β-actin as internal reference and analyze the expression quantities of α-SMA and β-actin by a gray level of Image J 1.50i. PBS with the same volume as that in experimental group was added in negative control. […] The integrating gray level of α-SMA/β-actin in the negative control group was 100% to analyze the in vitro inhibition activity of hepatic fibrosis of tested polypeptide.

Row | Substance | Relative expression of α-SMA (α-SMA/β-actin, %) [%]
1 | His-(D-Ser)-Gln-Gly-Thr-Phe-Thr-Ser-Asp-Tyr-Ser-Lys-Tyr-Leu-Asp-Glu-Lys-Ala-Ala-Lys(PEG2-PEG2-γGlu-CO(CH2)16CO2H)-Glu-Phe-Ile-Glu-Trp-Leu-Leu-Asn-Gly-Gly-Pro-Ser-Ser-Gly-Ala-Pro-Pro-Pro-Ser-NH2 (H[dS]QGTFTSDYSKYLDEKAAK([PEG2′-PEG2′-γGlu-C18 diacid])EFIEWLLNGGPSSGAPPPS-NH2) [Compound 26] | 44.44
2 | His-(D-Ser)-Gln-Gly-Thr-Phe-Thr-Ser-Asp-Tyr-Ser-Lys-Tyr-Leu-Asp-Lys(PEG2-PEG2-CO(CH2)14CH3)-Arg-Arg-Ala-Gln-Asp-Phe-Val-Gln-Trp-Leu-Leu-Asn-Thr-Gly-Gly-Pro-Ser-Ser-Gly-Ala-Pro-Pro-Pro-Ser-NH2 (H[dS]QGTFTSDYSKYLDK([PEG2′-PEG2′-Palmitoyl])RRAQDFVQWLLNTGGPSSGAPPPS-NH2) [Compound 42] | 38.11
3 | His-(D-Ser)-Gln-Gly-Thr-Phe-Thr-Ser-Asp-Tyr-Ser-Lys-Tyr-Leu-Asp-Lys(PEG2-PEG2-CO(CH2)16CO2H)-Arg-Arg-Ala-Gla-Asp-Phe-Val-Gln-Trp-Leu-Met-Asn-Thr-Gly-Gly-Pro-Ser-Ser-Gly-Ala-Pro-Pro-Pro-Ser-NH2 (H[dS]QGTFTSDYSKYLDK([PEG2′-PEG2′-C18 diacid])RRAQDFVQWLMNTGGPSSGAPPPS-NH2; also: position 20: name writes Gla, letters give Q) [Compound 35] | 51.28
4 | His-(D-Ser)-Gln-Gly-Thr-Phe-Thr-Ser-Asp-Tyr-Ser-Lys-Tyr-Leu-Asp-Lys(PEG2-PEG2-CO(CH2)16CO2H)-Arg-Arg-Ala-Gln-Asp-Phe-Val-Gln-Trp-Leu-Nle-Asn-Thr-Gly-Gly-Pro-Ser-Ser-Gly-Ala-Pro-Pro-Pro-Ser-NH2 (H[dS]QGTFTSDYSKYLDK([PEG2′-PEG2′-C18 diacid])RRAQDFVQWL[Nle]NTGGPSSGAPPPS-NH2) [Compound 41] | 42.10
5 | His-(D-Ser)-Gln-Gly-Thr-Phe-Thr-Ser-Asp-Tyr-Ser-Lys-Tyr-Leu-Asp-Lys(PEG2-PEG2-γGlu-CO(CH2)16CH3)-Arg-Arg-Ala-Gln-Asp-Phe-Val-Gln-Trp-Leu-Met-Asn-Thr-Gly-Gly-Pro-Ser-Ser-Gly-Ala-Pro-Pro-Pro-Ser-NH2 (H[dS]QGTFTSDYSKYLDK([PEG2′-PEG2′-γGlu-Stearoyl])RRAQDFVQWLMNTGGPSSGAPPPS-NH2) [Compound 36] | 42.49
6 | His-(D-Ser)-Gln-Gly-Thr-Phe-Thr-Ser-Asp-Tyr-Ser-Lys-Tyr-Leu-Asp-Lys(PEG2-PEG2-γGlu-CO(CH2)16CO2H)-Arg-Arg-Ala-Gln-Asp-Phe-Val-Gln-Trp-Leu-Met-Asn-Thr-Gly-Gly-Pro-Ser-Ser-Gly-Ala-Pro-Pro-Pro-Ser-NH2 (H[dS]QGTFTSDYSKYLDK([PEG2′-PEG2′-γGlu-C18 diacid])RRAQDFVQWLMNTGGPSSGAPPPS-NH2) [Compound 34] | 38.18
7 | His-(D-Ser)-Gln-Gly-Thr-Phe-Thr-Ser-Asp-Tyr-Ser-Lys-Tyr-Leu-Asp-Ser-Lys(PEG2-PEG2-γGlu-CO(CH2)16CH3)-Ala-Ala-His-Asp-Phe-Val-Glu-Trp-Leu-Leu-Arg-Ala-NH2 (H[dS]QGTFTSDYSKYLDSK([PEG2′-PEG2′-γGlu-Stearoyl])AAHDFVEWLLRA-NH2) [Compound 25] | 53.34
8 | His-(D-Ser)-Gln-Gly-Thr-Phe-Thr-Ser-Asp-Tyr-Ser-Lys-Tyr-Leu-Asp-Ser-Lys(PEG2-PEG2-γGlu-CO(CH2)16CH3)-Ala-Ala-His-Asp-Phe-Val-Glu-Trp-Leu-Leu-Asn-Gly-Gly-Pro-Ser-Ser-Gly-Aln-Pro-Pro-Pro-Ser-NH2 (H[dS]QGTFTSDYSKYLDSK([PEG2′-PEG2′-γGlu-Stearoyl])AAHDFVEWLLNGGPSSGAPPPS-NH2; also: position 35: name writes Aln, letters give A) [Compound 22] | 40.56
9 | His-(D-Ser)-Gln-Gly-Thr-Phe-Thr-Ser-Asp-Tyr-Ser-Lys-Tyr-Leu-Asp-Ser-Lys(PEG2-PEG2-γGlu-CO(CH2)16CO2H)-Ala-Ala-His-Asp-Phe-Val-Glu-Trp-Leu-Leu-Asn-Gly-Gly-Pro-Ser-Ser-Gly-Ala-Pro-Pro-Pro-Ser-NH2 (H[dS]QGTFTSDYSKYLDSK([PEG2′-PEG2′-γGlu-C18 diacid])AAHDFVEWLLNGGPSSGAPPPS-NH2) [Compound 21] | 37.66
10 | His-Aib-Gln-Gly-Thr-Phe-Thr-Ser-Asp-Lys(PEG2-PEG2-γGlu-CO(CH2)14CH3)-Ser-Lys-Tyr-Leu-Asp-Aib-Arg-Arg-Ala-Gln-Asp-Phe-Val-Gln-Trp-Leu-Leu-Asp-Gly-Gly-Pro-Ser-Ser-Gly-Ala-Pro-Pro-Pro-Ser-NH2 (H[Aib]QGTFTSDK([PEG2′-PEG2′-γGlu-Palmitoyl])SKYLD[Aib]RRAQDFVQWLLDGGPSSGAPPPS-NH2) [Compound 8] | 38.25
11 | His-Aib-Gln-Gly-Thr-Phe-Thr-Ser-Asp-Lys(PEG2-PEG2-γGlu-CO(CH2)14CH3)-Ser-Lys-Tyr-Leu-Asp-Glu-Arg-Arg-Ala-Gln-Asp-Phe-Val-Gln-Trp-Leu-Leu-Asp-Gly-Gly-Pro-Ser-Ser-Gly-Ala-Pro-Pro-Pro-Ser-NH2 (H[Aib]QGTFTSDK([PEG2′-PEG2′-γGlu-Palmitoyl])SKYLDERRAQDFVQWLLDGGPSSGAPPPS-NH2) [Compound 16] | 40.35
12 | His-Aib-Gln-Gly-Thr-Phe-Thr-Ser-Asp-Lys(PEG2-PEG2-γGlu-CO(CH2)14CO2H)-Ser-Lys-Tyr-Leu-Asp-Aib-Arg-Arg-Ala-Gln-Asp-Phe-Val-Gln-Trp-Leu-Leu-Asp-Gly-Gly-Pro-Ser-Ser-Gly-Ala-Pro-Pro-Pro-Ser-NH2 (H[Aib]QGTFTSDK([PEG2′-PEG2′-γGlu-C16 diacid])SKYLD[Aib]RRAQDFVQWLLDGGPSSGAPPPS-NH2) [Compound 11] | 41.78
13 | His-Aib-Gln-Gly-Thr-Phe-Thr-Ser-Asp-Lys(PEG2-PEG2-γGlu-CO(CH2)14CO2H)-Ser-Lys-Tyr-Leu-Asp-Glu-Arg-Arg-Ala-Gln-Asp-Phe-Val-Gln-Trp-Leu-Leu-Asp-Gly-Gly-Pro-Ser-Ser-Gly-Ala-Pro-Pro-Pro-Ser-NH2 (H[Aib]QGTFTSDK([PEG2′-PEG2′-γGlu-C16 diacid])SKYLDERRAQDFVQWLLDGGPSSGAPPPS-NH2) [Compound 13] | 37.93
14 | His-Aib-Gln-Gly-Thr-Phe-Thr-Ser-Asp-Lys(PEG2-PEG2-γGlu-CO(CH2)16CH3)-Ser-Lys-Tyr-Leu-Asp-Aib-Arg-Arg-Ala-Gln-Asp-Phe-Val-Gln-Trp-Leu-Leu-Asp-Gly-Gly-Pro-Ser-Ser-Gly-Ala-Pro-Pro-Pro-Ser-NH2 (H[Aib]QGTFTSDK([PEG2′-PEG2′-γGlu-Stearoyl])SKYLD[Aib]RRAQDFVQWLLDGGPSSGAPPPS-NH2) [Compound 12] | 36.99
15 | His-Aib-Gln-Gly-Thr-Phe-Thr-Ser-Asp-Lys(PEG2-PEG2-γGlu-CO(CH2)16CH3)-Ser-Lys-Tyr-Leu-Asp-Glu-Arg-Arg-Ala-Gln-Asp-Phe-Val-Gln-Trp-Leu-Leu-Asp-Gly-Gly-Pro-Ser-Ser-Gly-Ala-Pro-Pro-Pro-Ser-NH2 (H[Aib]QGTFTSDK([PEG2′-PEG2′-γGlu-Stearoyl])SKYLDERRAQDFVQWLLDGGPSSGAPPPS-NH2) [Compound 14] | 42.80
16 | His-Aib-Gln-Gly-Thr-Phe-Thr-Ser-Asp-Lys(PEG2-PEG2-γGlu-CO(CH2)16CO2H)-Ser-Lys-Tyr-Leu-Asp-Aib-Arg-Arg-Ala-Gln-Asp-Phe-Val-Gln-Trp-Leu-Leu-Asp-Gly-Gly-Pro-Ser-Ser-Gly-Ala-Pro-Pro-Pro-Ser-NH2 (H[Aib]QGTFTSDK([PEG2′-PEG2′-γGlu-C18 diacid])SKYLD[Aib]RRAQDFVQWLLDGGPSSGAPPPS-NH2) [Compound 19] | 39.75
17 | His-Aib-Gln-Gly-Thr-Phe-Thr-Ser-Asp-Lys(PEG2-PEG2-γGlu-CO(CH2)16CO2H)-Ser-Lys-Tyr-Leu-Asp-Glu-Arg-Arg-Ala-Gln-Asp-Phe-Val-Gln-Trp-Leu-Leu-Asp-Gly-Gly-Pro-Ser-Ser-Gly-Ala-Pro-Pro-Pro-Ser-NH2 (H[Aib]QGTFTSDK([PEG2′-PEG2′-γGlu-C18 diacid])SKYLDERRAQDFVQWLLDGGPSSGAPPPS-NH2) [Compound 15] | 57.29
